In US20230233690A1, “ANDROGEN RECEPTOR PROTEIN DEGRADERS” (THE REGENTS OF THE UNIVERSITY OF MICHIGAN, priority 2020, published 2023):
Read-outs that look alike come from different tables or passages of the source.

Experiments:
AR protein = target: T1, AR protein (Homo sapiens, UniProt P10275); experiment: Western blotting of AR protein degradation in VCaP cells; assay type: cell-based
T1 construct: endogenous in cells; host or cells: VCaP
T1 sequence (P10275 1-920): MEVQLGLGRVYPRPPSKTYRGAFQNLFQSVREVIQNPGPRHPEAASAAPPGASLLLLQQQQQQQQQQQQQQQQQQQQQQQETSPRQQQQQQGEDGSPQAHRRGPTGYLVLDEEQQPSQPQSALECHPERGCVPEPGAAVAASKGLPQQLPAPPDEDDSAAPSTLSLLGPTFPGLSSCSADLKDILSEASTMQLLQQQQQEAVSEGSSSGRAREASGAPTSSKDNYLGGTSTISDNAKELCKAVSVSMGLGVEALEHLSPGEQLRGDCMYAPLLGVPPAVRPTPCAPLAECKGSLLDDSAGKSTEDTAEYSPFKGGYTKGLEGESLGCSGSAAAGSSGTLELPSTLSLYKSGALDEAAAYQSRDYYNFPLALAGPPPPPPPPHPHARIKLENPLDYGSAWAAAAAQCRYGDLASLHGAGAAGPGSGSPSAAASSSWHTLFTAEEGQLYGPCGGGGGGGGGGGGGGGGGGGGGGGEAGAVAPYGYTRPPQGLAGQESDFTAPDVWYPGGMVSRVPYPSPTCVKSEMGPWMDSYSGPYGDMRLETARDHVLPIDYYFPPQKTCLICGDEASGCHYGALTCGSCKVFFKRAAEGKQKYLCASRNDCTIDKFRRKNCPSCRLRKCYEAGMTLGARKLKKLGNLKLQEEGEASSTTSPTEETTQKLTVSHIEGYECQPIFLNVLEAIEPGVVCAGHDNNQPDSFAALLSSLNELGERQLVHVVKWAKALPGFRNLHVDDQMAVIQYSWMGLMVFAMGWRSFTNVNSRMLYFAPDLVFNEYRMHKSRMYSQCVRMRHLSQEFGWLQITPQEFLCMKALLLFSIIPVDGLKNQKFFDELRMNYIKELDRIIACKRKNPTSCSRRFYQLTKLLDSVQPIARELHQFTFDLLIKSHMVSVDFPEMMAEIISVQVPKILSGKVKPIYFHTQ
Description: The treated cells were lysed with RIPA buffer. […] GAPDH was used as a loading control.
Bands were quantified with ImageJ software. The relative numbers of each band obtained from normalization with its corresponding GAPDH level were compared with Prism 8 software. The DC50 values were produced from Prism 8, and the DC90 values were calculated with an equation=Bottom+(Top−Bottom)/(1+10^((Log EC50−X)*HillSlope) based on DC50 and Hillslope values.

[1] = PK parameters in male mice (Table 9); assay type: in vivo; settings: for Vd: read-out: Vss
Description: The pharmacokinetics (PK) of representative Compounds of the Disclosure were evaluated in mice or rats to provide an assessment of their oral bioavaibility. All animal experiments were performed under the guidelines of the University of Michigan Committee for Use and Care of Animals and using an approved animal protocol.

[2] = ICR, mouse, in vivo, IV 1 mg/kg
[3] = ICR, mouse, in vivo, IV 1 mg/kg, read-out: AUC(0-t)
[4] = ICR, mouse, in vivo, PO 3 mg/kg
[5] = ICR, mouse, in vivo, PO 3 mg/kg, read-out: AUC(0-t)
[6] = ICR, mouse, in vivo, PO 3 mg/kg, read-out: Cmax
[7] = ICR, mouse, in vivo, PO 3 mg/kg, read-out: Tmax
[8] = ICR, mouse, in vivo, IV 2 mg/kg

SMILES | % AR protein degradation in VCaP Cells (AR protein; 0.001 μM) [%] | % AR protein degradation in VCaP Cells (AR protein; 0.01 μM) [%] | % AR protein degradation in VCaP Cells (AR protein; 0.1 μM) [%] | Vd [1, 2] [L/kg] | AUC(0-t) ([1]; IV 1 mg/kg) [ng·h/mL] | Cl ([1]; IV 1 mg/kg) [mL/min/kg] | T1/2 ([1]; IV 1 mg/kg) [h] | AUC(0-t) ([1]; PO 3 mg/kg) [ng·h/mL] | Cmax ([1]; PO 3 mg/kg) [ng/mL] | T1/2 ([1]; PO 3 mg/kg) [h] | Tmax ([1]; PO 3 mg/kg) [h] | F ([1]; PO 3 mg/kg vs IV 1 mg/kg) [%] | % AR protein degradation in VCaP Cells (AR protein; 1 μM) [%] | clearance [1, 2] [mL/min/kg] | also measured
CN(c1ccc(C#N)c(Cl)c1)[C@H]1CC[C@H](NC(=O)c2ccc(N3CCN(C4CCN(c5ccc6c(c5)C(=O)N(C5CCC(=O)NC5=O)C6=O)CC4)CC3)cc2)CC1 (stereo partly drawn) [Cpd. No. 235, N-((1r,4r)-4-((3-chloro-4-cyanophenyl)(methyl)amino)cyclohexyl)-4-(4-(1-(2-(2,6-dioxopiperidin-3-yl)-1,3-dioxoisoindolin-5-yl)piperidin-4-yl)piperazin-1-yl)benzamide] | 94 | 99 | 99.9 | 2.64 | 3366 | 4.5 | 7.6 | 3001 | 256.1 | 7.0 | 4.7 | 29 |  |  | 
CN(c1ccc(C#N)c(Cl)c1)[C@H]1CC[C@H](NC(=O)c2ccc(N3CCN(C4CN(c5ccc6c(c5)C(=O)N(C5CCC(=O)NC5=O)C6=O)C4)CC3)cc2)CC1 (stereo partly drawn) [Cpd. No. 238, N-((1r,4r)-4-((3-chloro-4-cyanophenyl)(methyl)amino)cyclohexyl)-4-(4-(1-(2-(2,6-dioxopiperidin-3-yl)-1,3-dioxoisoindolin-5-yl)azetidin-3-yl)piperazin-1-yl)benzamide] | 78 | 90 | 89 |  |  |  |  |  |  |  |  |  | 78 |  | AUC(0-t) ([1]; IV 2 mg/kg): 6481 ng·h/mL; Cl ([1]; IV 2 mg/kg): 5 mL/min/kg; T1/2 ([1]; IV 2 mg/kg): 5.5 h; Vss ([1]; IV 2 mg/kg): 1.8 L/kg; AUC(0-t) ([1]; PO 5 mg/kg): 8254 ng·h/mL; Cmax ([1]; PO 5 mg/kg): 1140 ng/mL; T1/2 ([1]; PO 5 mg/kg): 4.6 h; Tmax ([1]; PO 5 mg/kg): 2.0 h; F ([1]; PO 5 mg/kg vs IV 2 mg/kg): 51%
N#Cc1ccc(O[C@H]2CC[C@H](NC(=O)c3ccc(N4CCN(C5CCN(c6ccc7c(c6)C(=O)N(C6CCC(=O)NC6=O)C7=O)CC5)CC4)cc3)CC2)cc1Cl (stereo partly drawn) [compound 222, N-((1r,4r)-4-(3-chloro-4-cyanophenoxy)cyclohexyl)-4-(4-(1-(2-(2,6-dioxopiperidin-3-yl)-1,3-dioxoisoindolin-5-yl)piperidin-4-yl)piperazin-1-yl)benzamide] | 63 | 59 | 60 | 4.75 |  |  |  |  |  |  |  | 33 | 43 | 7.33 | half-life [1, 2]: 9 h; AUC(0-t) [1, 3]: 1980 ng·h/mL; half-life [1, 4]: 11.3 h; AUC(0-t) [1, 5]: 1990 ng·h/mL; Cmax [1, 6]: 122 ng/mL; Tmax [1, 7]: 6 h
N#Cc1ccc(O[C@H]2CC[C@H](NC(=O)c3ccc(N4CCC(N5CCN(c6ccc7c(c6)C(=O)N(C6CCC(=O)NC6=O)C7=O)CC5)CC4)cc3)CC2)cc1Cl (stereo partly drawn) [compound 223, N-((1r,4r)-4-(3-chloro-4-cyanophenoxy)cyclohexyl)-4-(4-(4-(2-(2,6-dioxopiperidin-3-yl)-1,3-dioxoisoindolin-5-yl)piperazin-1-yl)piperidin-1-yl)benzamide] | 73 | 91 | 85 | 3.04 | 2425 |  | 6.1 | 2154 | 207 | 5.6 | 4.0 | 30 | 75 | 6.5 | 
N#Cc1ccc(O[C@H]2CC[C@H](NC(=O)c3ccc(N4CCN(C5CN(c6ccc7c(c6)C(=O)N(C6CCC(=O)NC6=O)C7=O)C5)CC4)cc3)CC2)cc1Cl (stereo partly drawn) [compound 225, N-((1r,4r)-4-(3-chloro-4-cyanophenoxy)cyclohexyl)-4-(4-(1-(2-(2,6-dioxopiperidin-3-yl)-1,3-dioxoisoindolin-5-yl)azetidin-3-yl)piperazin-1-yl)benzamide] | 61 | 48 | 15 |  |  |  |  |  |  |  |  |  | −23 |  | clearance [1, 8]: 4.33 mL/min/kg; half-life [1, 8]: 6.58 h; AUC(0-t) ([1]; ICR, mouse, in vivo, IV 2 mg/kg, read-out: AUC(0-t)): 6760 ng·h/mL; Vd [1, 8]: 2.23 L/kg; half-life ([1]; ICR, mouse, in vivo, PO 5 mg/kg): 5.8 h; AUC(0-t) ([1]; ICR, mouse, in vivo, PO 5 mg/kg, read-out: AUC(0-t)): 13100 ng·h/mL; Cmax ([1]; ICR, mouse, in vivo, PO 5 mg/kg, read-out: Cmax): 2130 ng/mL; Tmax ([1]; ICR, mouse, in vivo, PO 5 mg/kg, read-out: Tmax): 2 h; F ([1]; PO 5 mg/kg vs IV 2 mg/kg): 77%
CN(c1ccc(C#N)c(Cl)c1)[C@H]1CC[C@H](NC(=O)c2ccc(N3CCN(CC4CCN(c5ccc6c(c5)C(=O)N(C5CCC(=O)NC5=O)C6=O)CC4)CC3)cc2)CC1 (stereo partly drawn) [compound 233, N-((1r,4r)-4-((3-chloro-4-cyanophenyl)(methyl)amino)cyclohexyl)-4-(4-((1-(2-(2,6-dioxopiperidin-3-yl)-1,3-dioxoisoindolin-5-yl)piperidin-4-yl)methyl)piperazin-1-yl)benzamide] | 49 | 78 | 87 | 16.8 |  |  |  |  |  |  |  | 30 | 76 | 8.5 | half-life [1, 2]: 26 h; AUC(0-t) [1, 3]: 1040 ng·h/mL; half-life [1, 4]: 41 h; AUC(0-t) [1, 5]: 940 ng·h/mL; Cmax [1, 6]: 60 ng/mL; Tmax [1, 7]: 4 h
CN(c1ccc(C#N)c(Cl)c1)[C@H]1CC[C@H](NC(=O)c2ccc(N3CCC(CN4CCN(c5ccc6c(c5)C(=O)N(C5CCC(=O)NC5=O)C6=O)CC4)CC3)cc2)CC1 (stereo partly drawn) [compound 234, N-((1r,4r)-4-((3-chloro-4-cyanophenyl)(methyl)amino)cyclohexyl)-4-(4-((4-(2-(2,6-dioxopiperidin-3-yl)-1,3-dioxoisoindolin-5-yl)piperazin-1-yl)methyl)piperidin-1-yl)benzamide] | 55 | 91 | 93 |  | 693 | 18.3 | 12.5 | 737.5 | 45.0 | 27.0 | 6.0 | 35 | 90 |  | Vss ([1]; IV 1 mg/kg): 17.6 L/kg
CN(c1ccc(C#N)c(Cl)c1)[C@H]1CC[C@H](NC(=O)c2ccc(N3CCN(CC4CN(c5ccc6c(c5)C(=O)N(C5CCC(=O)NC5=O)C6=O)C4)CC3)cc2)CC1 (stereo partly drawn) [compound 237, N-((1r,4r)-4-((3-chloro-4-cyanophenyl)(methyl)amino)cyclohexyl)-4-(4-((1-(2-(2,6-dioxopiperidin-3-yl)-1,3-dioxoisoindolin-5-yl)azetidin-3-yl)methyl)piperazin-1-yl)benzamide] |  |  |  |  | 1226 | 13.7 | 3.8 | 1111 | 127 | 4.3 | 5.3 | 30 |  |  | Vss ([1]; IV 1 mg/kg): 3.92 L/kg
